# Experimental data taken from article PMC10534724, “Interaction of ALK Inhibitors with Polyspecific Organic Cation Transporters and the Impact of Substrate-Dependent Inhibition on the Prediction of Drug–Drug Interactions” (Pharmaceutics, 2023).
# What was measured:
# [1] = molecular target: T1, hOCT2 (Homo sapiens, UniProt O15244); settings: cited from earlier work
# T1 sequence (O15244 1-555): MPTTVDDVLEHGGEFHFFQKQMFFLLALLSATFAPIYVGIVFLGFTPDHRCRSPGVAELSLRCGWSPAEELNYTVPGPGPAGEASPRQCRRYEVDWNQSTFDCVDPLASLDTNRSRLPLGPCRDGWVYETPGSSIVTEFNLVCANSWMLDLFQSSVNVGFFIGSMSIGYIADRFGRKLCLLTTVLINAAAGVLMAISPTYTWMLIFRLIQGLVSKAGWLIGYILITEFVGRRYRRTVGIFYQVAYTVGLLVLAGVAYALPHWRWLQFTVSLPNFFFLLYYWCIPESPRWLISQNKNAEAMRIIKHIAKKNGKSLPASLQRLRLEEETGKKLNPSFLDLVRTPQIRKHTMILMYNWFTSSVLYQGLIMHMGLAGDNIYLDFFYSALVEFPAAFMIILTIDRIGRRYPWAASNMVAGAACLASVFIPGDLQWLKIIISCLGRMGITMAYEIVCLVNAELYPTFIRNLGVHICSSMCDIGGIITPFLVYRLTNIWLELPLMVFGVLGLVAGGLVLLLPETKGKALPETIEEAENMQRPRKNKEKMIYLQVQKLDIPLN
# [2] = molecular target: T2, hMATE2-K (Homo sapiens, UniProt Q86VL8); assay: Inhibition of hMATE2-K-mediated substrate uptake in transfected HEK293 cells (pH 8.0); assay type: in vitro ADME; settings: HEK293; 20 µM inhibitor; 1 µM mIBG; 2 min, 37 °C
# T2 construct: expressed in transfected cells
# [3] = molecular target: T1, hOCT2; assay: Inhibition of hOCT2-mediated substrate uptake in transfected HEK293 cells; assay type: in vitro ADME; design: expressed in transfected cells; settings: HEK293; 20 µM inhibitor; 1 µM mIBG; 2 min, 37 °C
# [4] = molecular target: T3, hOCT1 (Homo sapiens, UniProt O15245); assay: Inhibition of hOCT1-mediated substrate uptake in transfected HEK293 cells; assay type: in vitro ADME; settings: HEK293; 20 µM inhibitor; 1 µM mIBG; 2 min, 37 °C
# T3 construct: expressed in transfected cells
# T3 sequence (O15245 1-554): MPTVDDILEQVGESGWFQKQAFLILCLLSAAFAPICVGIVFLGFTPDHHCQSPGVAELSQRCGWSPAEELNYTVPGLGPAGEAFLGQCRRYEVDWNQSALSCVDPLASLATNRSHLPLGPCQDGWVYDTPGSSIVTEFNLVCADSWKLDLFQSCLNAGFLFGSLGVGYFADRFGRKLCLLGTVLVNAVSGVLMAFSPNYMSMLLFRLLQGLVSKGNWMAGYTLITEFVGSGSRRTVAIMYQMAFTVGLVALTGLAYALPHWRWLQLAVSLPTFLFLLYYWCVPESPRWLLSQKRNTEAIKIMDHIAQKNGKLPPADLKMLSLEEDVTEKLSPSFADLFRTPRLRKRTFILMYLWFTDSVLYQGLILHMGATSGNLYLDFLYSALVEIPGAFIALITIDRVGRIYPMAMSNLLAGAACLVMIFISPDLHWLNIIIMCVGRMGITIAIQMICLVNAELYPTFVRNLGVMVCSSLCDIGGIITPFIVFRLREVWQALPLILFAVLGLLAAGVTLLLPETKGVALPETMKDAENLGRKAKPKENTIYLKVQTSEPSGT
# [5] = molecular target: T4, hOCT3 (Homo sapiens, UniProt O75751); assay: Inhibition of hOCT3-mediated substrate uptake in transfected HEK293 cells; assay type: in vitro ADME; settings: HEK293; 20 µM inhibitor; 1 µM mIBG; 2 min, 37 °C; read-out: inhibition of mIBG uptake by hOCT3
# T4 construct: expressed in transfected cells
# T4 sequence (O75751 1-556): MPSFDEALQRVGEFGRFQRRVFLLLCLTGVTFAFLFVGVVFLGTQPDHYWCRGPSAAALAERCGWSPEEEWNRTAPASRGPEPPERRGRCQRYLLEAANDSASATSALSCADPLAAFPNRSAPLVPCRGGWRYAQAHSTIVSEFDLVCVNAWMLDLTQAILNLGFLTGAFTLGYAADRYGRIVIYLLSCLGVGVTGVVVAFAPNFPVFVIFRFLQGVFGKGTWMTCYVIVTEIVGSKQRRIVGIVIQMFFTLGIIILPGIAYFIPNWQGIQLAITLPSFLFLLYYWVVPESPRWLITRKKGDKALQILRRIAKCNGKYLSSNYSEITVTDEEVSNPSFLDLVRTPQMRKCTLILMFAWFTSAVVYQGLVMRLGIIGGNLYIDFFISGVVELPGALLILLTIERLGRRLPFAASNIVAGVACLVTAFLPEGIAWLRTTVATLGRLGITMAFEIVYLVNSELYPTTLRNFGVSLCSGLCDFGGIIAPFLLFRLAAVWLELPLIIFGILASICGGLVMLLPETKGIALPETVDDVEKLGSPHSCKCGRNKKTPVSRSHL
# [6] = molecular target: T5, hMATE1 (Homo sapiens, UniProt Q96FL8); assay: Inhibition of hMATE1-mediated substrate uptake in transfected HEK293 cells (pH 8.0); assay type: in vitro ADME; settings: HEK293; 20 µM inhibitor; 1 µM mIBG; 2 min, 37 °C
# T5 construct: expressed in transfected cells
# T5 sequence (Q96FL8 1-570): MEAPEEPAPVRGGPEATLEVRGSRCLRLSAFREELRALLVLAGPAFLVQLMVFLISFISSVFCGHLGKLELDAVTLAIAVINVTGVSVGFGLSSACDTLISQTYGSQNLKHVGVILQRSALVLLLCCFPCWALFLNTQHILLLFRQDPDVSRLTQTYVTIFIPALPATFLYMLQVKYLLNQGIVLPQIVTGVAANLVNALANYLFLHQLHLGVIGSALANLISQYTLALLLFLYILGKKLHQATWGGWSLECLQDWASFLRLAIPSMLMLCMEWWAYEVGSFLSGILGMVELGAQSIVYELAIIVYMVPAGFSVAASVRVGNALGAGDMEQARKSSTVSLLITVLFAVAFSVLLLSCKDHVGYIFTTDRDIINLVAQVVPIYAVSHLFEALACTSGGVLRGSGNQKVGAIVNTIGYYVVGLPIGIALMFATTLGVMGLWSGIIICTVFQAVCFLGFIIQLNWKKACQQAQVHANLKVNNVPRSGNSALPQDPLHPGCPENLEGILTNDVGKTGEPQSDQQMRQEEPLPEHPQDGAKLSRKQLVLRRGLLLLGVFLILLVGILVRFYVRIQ
# T2 sequence (Q86VL8 1-566 isoform Q86VL8-3): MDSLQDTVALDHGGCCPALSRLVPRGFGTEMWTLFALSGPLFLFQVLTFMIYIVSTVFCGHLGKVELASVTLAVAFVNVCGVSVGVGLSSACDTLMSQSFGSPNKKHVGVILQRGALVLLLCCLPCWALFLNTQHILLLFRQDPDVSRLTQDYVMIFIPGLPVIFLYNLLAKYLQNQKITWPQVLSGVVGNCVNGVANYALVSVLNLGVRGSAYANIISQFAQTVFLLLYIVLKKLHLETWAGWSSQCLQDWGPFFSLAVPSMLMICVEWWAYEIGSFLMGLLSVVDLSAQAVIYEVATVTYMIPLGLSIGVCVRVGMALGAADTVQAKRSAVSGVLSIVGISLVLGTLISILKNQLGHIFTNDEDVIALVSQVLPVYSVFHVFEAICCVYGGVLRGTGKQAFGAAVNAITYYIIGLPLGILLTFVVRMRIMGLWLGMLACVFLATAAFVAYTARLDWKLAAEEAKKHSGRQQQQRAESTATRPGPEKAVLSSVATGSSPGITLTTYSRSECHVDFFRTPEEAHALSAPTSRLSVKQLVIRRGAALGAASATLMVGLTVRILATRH
inhibition at 20 µM [2] [%],inhibition at 20 µM [3] [%],inhibition at 20 µM [4] [%],inhibition at 20 µM [5] [%],inhibition at 20 µM [6] [%],Compound,higher potency on OCT2 with atenolol as substrate compared with metformin [1] [fold]
,,,,,CN/C(=N/CCSCc1nc[nH]c1C)NC#N [cimetidine],10
≤ 50,≤ 50,,,,"C#Cc1cccc(Nc2ncnc3cc(OCCOC)c(OCCOC)cc23)c1 [erlotinib, Erlotinib]",
≤ 50,≤ 50,≤ 50,≤ 50,≤ 50,C[C@H]1Oc2cc(cnc2N)-c2c(nn(C)c2C#N)CN(C)C(=O)c2ccc(F)cc21 [lorlatinib],
